Results from patent publication US8658165B2, “Method of treating aberrant mucus production in respiratory disease” (Novartis AG, priority 2007, dated 2014).

What was measured:
[1] = test system: Human Bronchial Epithelial Cells (HBECs); test: Inhibition of NRG1β1-induced goblet cell formation (MUC5AC and MUC5B protein by histology) in HBECs; assay type: cell-based; settings: inhibitor at 10 μM, NRG1β1 50 nM, 7 days at ALI
Procedure: Human Bronchial epithelial cells (HBECs; Cambrex) were cultured in bronchial epithelial cell growth medium (BEGM; Cambrex) supplemented with the provided singlequots essentially as described in [Atherton et al, 2003]. For differentiation, cells were grown on 0.4 μm pore size, 12 mm TRANSWELL® inserts (Costar) at a cell density of 8.25×10^4 cells/insert in differentiation medium. Differentiation medium contained 50% BEGM and 50% Dulbeccos' modified Eagle's medium (DMEM) and was supplemented with 52 μg/ml bovine pituitary extract, 5 μg/ml insulin, 0.5 μg/ml hydrocortisone, 10 μg/ml transferrin, 0.5 μg/ml epinephrine 0.5 ng/ml human EGF, 50 μg/ml gentamicin and 50 nM retinoic acid. Cells were maintained submerged for 7 days then grown at air-liquid interface (ALI) for 7-14 days and medium was replenished every 2-3 days. […]
After 7 days (unless otherwise stated) of differentiation at ALI, the apical surface of the HBECs was washed gently with PBS and fixed with neutral buffered formalin and wax embedded. […] The area of staining was assessed using a ZEISS® Axioplan 2 microscope (×10 magnification) with an Imaging Associated KS400 image analyzer (Imaging Associates). Fourteen fields were scored for each sample. Data are presented as goblet cell density, which was defined as the ratio of stained area (μm^2) to length (μm) of epithelium scored. […]

[2] = test system: Human Bronchial Epithelial Cells (HBECs); test: Effect of NRG1 isoforms on MUC5AC and MUC5B protein (goblet cell formation) in HBECs at air-liquid interface, immunohistochemistry; assay type: cell-based; settings: HBECs at ALI, 7 days
Procedure: Human Bronchial epithelial cells (HBECs; Cambrex) were cultured in bronchial epithelial cell growth medium (BEGM; Cambrex) supplemented with the provided singlequots essentially as described in [Atherton et al, 2003]. For differentiation, cells were grown on 0.4 μm pore size, 12 mm TRANSWELL® inserts (Costar) at a cell density of 8.25×10^4 cells/insert in differentiation medium. Differentiation medium contained 50% BEGM and 50% Dulbeccos' modified Eagle's medium (DMEM) and was supplemented with 52 μg/ml bovine pituitary extract, 5 μg/ml insulin, 0.5 μg/ml hydrocortisone, 10 μg/ml transferrin, 0.5 μg/ml epinephrine 0.5 ng/ml human EGF, 50 μg/ml gentamicin and 50 nM retinoic acid. Cells were maintained submerged for 7 days then grown at air-liquid interface (ALI) for 7-14 days and medium was replenished every 2-3 days. Cells were treated with NRG1α or NRG1β1 (R&D SYSTEMS®) during the ALI culture period, added to the basolateral chamber of the TRANSWELL® inserts. At all stages cells were maintained at 37° C. in the presence of 5% CO2 in an air incubator.
After 7 days (unless otherwise stated) of differentiation at ALI, the apical surface of the HBECs was washed gently with PBS and fixed with neutral buffered formalin and wax embedded. Inserts were sectioned at 3 μm thickness and stained with either an anti-MUC5AC antibody (45M1; LABVISION®) or anti-MUC5B monoclonal antibodies using a DABMAP protocol on a VENTANA® XT immunostainer and counterstained with 1% alcian blue in 3% acetic acid, pH 2.5. The area of staining was assessed using a ZEISS® Axioplan 2 microscope (×10 magnification) with an Imaging Associated KS400 image analyzer (Imaging Associates). Fourteen fields were scored for each sample. Data are presented as goblet cell density, which was defined as the ratio of stained area (μm^2) to length (μm) of epithelium scored. Custom made anti-MUC5B monoclonal antibodies were obtained from the Hybridoma Core Laboratory, University of Florida and were raised against the peptide SWYNGHRPEPGLG (SEQ ID NO:11).

ErbB3 = ErbB3 (Homo sapiens, UniProt P21860); settings: higher affinity than NRG1a; cited from earlier work
ErbB3, sequence (P21860 20-1342): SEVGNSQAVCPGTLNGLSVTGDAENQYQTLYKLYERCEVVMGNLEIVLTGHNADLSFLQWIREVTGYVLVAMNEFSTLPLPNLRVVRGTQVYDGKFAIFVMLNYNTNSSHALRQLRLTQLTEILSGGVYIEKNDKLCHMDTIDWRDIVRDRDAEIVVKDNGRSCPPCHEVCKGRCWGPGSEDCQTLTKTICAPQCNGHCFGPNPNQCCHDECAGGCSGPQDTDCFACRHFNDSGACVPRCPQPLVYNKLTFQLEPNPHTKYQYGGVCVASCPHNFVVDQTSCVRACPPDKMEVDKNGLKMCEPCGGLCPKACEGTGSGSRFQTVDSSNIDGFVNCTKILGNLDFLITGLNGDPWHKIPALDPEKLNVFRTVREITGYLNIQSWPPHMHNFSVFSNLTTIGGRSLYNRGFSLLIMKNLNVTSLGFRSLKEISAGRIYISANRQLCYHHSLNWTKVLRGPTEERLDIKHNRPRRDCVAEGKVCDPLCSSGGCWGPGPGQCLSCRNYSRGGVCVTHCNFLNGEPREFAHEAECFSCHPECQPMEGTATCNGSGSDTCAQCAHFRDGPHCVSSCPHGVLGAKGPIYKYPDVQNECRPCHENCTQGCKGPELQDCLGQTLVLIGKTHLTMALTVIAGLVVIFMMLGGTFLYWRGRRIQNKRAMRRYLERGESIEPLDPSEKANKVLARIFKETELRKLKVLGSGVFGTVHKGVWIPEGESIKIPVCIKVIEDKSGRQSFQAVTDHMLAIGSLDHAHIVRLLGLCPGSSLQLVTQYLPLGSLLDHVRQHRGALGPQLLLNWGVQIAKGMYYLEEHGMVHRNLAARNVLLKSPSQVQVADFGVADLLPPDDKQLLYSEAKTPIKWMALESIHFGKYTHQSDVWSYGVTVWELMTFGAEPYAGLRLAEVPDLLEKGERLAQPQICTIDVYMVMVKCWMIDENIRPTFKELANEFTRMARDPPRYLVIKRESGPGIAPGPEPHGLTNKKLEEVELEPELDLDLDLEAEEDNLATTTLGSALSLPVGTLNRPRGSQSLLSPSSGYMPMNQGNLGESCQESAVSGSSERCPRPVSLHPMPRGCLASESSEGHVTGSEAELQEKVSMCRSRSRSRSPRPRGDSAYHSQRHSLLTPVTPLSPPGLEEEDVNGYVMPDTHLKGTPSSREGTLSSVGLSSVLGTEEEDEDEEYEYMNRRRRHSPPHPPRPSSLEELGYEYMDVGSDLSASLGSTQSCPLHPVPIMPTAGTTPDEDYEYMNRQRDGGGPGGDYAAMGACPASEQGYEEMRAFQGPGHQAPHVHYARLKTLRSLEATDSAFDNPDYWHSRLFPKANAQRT

ErbB2/ErbB3 heterodimer = ErbB2/ErbB3 heterodimer (Homo sapiens, UniProt P21860); settings: greater affinity than for ErbB3 homodimers; cited from earlier work

## CCN1CCN(Cc2ccc(-c3cc4c(N[C@H](C)c5ccccc5)ncnc4[nH]3)cc2)CC1 [pan-ErbB receptor inhibitor]
[1]
  effect on NRG1β1-induced increase in MUC5AC protein: significantly inhibited
  effect on NRG1β1-induced increase in MUC5B protein: significantly inhibited

## NRG1β1: Neuregulin-1 isoform β1 protein (R&D SYSTEMS) added to HBEC cultures
[2]; 50 nM, histology
  increase in MUC5AC protein over vehicle levels: 3 fold
[2]; 50 nM, immunohistochemistry
  increase in MUC5B protein: 9.8 fold
[2]; increasing concentrations, histology
  effect on MUC5AC protein: dose-dependent increase
ErbB3
  affinity for ErbB3 relative to NRG1a: 100 fold
ErbB2/ErbB3 heterodimer
  affinity for the ErbB2/ErbB3 heterodimer relative to ErbB3 homodimers: 100 fold
